Data from PubChem BioAssay AID1919013 (Molecular Pharmacology Branch, DTP, NCI, 2023).

System: LG0703-F498-PDC complex spheroid growth
Experiment: Anticancer human tumor LG0703-F498-PDC patient-derived lung adenocarcinoma cell line growth inhibition [AhR]
Conditions: for IC50: curve of first compound; for viability, T/C: stronger effect = lower value; active = viability on the fitted dose curve at most 10% of control; inactive = the rest
Summary of the method: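 Complex tumor spheroids co-cultured with HUVEC and human MSC stroma; AhR antagonists tested in combination with standard-of-care and investigational agents. Top concentration at or near clinical Cmax (else 10 microM), half-log dilutions; growth expressed as percent test/control.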

[1] = second compound 0.1 µM, first compound 0.0316 µM
[2] = second compound 0.1 µM, first compound 0.1 µM
[3] = second compound 0.1 µM, first compound 0.316 µM
[4] = second compound 0.1 µM, first compound 1 µM
[5] = second compound 0.1 µM, first compound 3.16 µM
[6] = second compound 0.1 µM, first compound 10 µM
[7] = second compound 0.316 µM, first compound 0.0316 µM
[8] = second compound 0.316 µM, first compound 0.1 µM
[9] = second compound 0.316 µM, first compound 0.316 µM
[10] = second compound 0.316 µM, first compound 1 µM
[11] = second compound 0.316 µM, first compound 3.16 µM
[12] = second compound 0.316 µM, first compound 10 µM
[13] = second compound 1 µM, first compound 0.0316 µM
[14] = second compound 1 µM, first compound 0.1 µM
[15] = second compound 1 µM, first compound 0.316 µM
[16] = second compound 1 µM, first compound 1 µM
[17] = second compound 1 µM, first compound 3.16 µM
[18] = second compound 1 µM, first compound 10 µM
[19] = second compound 3.16 µM, first compound 0.0316 µM
[20] = second compound 3.16 µM, first compound 0.1 µM
[21] = second compound 3.16 µM, first compound 0.316 µM
[22] = second compound 3.16 µM, first compound 1 µM
[23] = second compound 3.16 µM, first compound 3.16 µM
[24] = second compound 3.16 µM, first compound 10 µM
[25] = second compound 10 µM, first compound 0.0316 µM
[26] = second compound 10 µM, first compound 0.1 µM
[27] = second compound 10 µM, first compound 0.316 µM
[28] = second compound 10 µM, first compound 1 µM
[29] = second compound 10 µM, first compound 3.16 µM
[30] = second compound 10 µM, first compound 10 µM
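Also: luminescence taken as a proxy for viable cell amount.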
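For viability, T/C in this document: percent of DMSO vehicle control where 100% means growth equal to vehicle.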

CC1(C)CCC(CN2CCN(c3ccc(C(=O)NS(=O)(=O)c4ccc(NCC5CCOCC5)c([N+](=O)[O-])c4)c(Oc4cnc5[nH]ccc5c4)c3)CC2)=C(c2ccc(Cl)cc2)C1 + Cc1ccccc1N=Nc1ccc(NC(=O)c2ccnn2C)c(C)c1
5.65 µM: IC50 (second compound 1 µM)
inactive: viability, T/C [1] 102% | viability, T/C [2] 94.5% | viability, T/C [3] 94.1% | viability, T/C [4] 94.3% | viability, T/C [5] 95.2% | viability, T/C [6] 19.1% | viability, T/C [7] 98.7% | viability, T/C [8] 104% | viability, T/C [9] 100% | viability, T/C [10] 89.5% | viability, T/C [11] 92.9% | viability, T/C [12] 24.5% | viability, T/C [13] 96.8% | viability, T/C [14] 87% | viability, T/C [15] 107% | viability, T/C [16] 91.1% | viability, T/C [17] 78.5% | viability, T/C [18] 22.2% | viability, T/C [19] 79% | viability, T/C [20] 90.9% | viability, T/C [21] 82.9% | viability, T/C [22] 107% | viability, T/C [23] 75.4% | viability, T/C [24] 26.8% | viability, T/C [25] 95% | viability, T/C [26] 86% | viability, T/C [27] 96.2% | viability, T/C [28] 76.2% | viability, T/C [29] 83.3% | viability, T/C [30] 37.7%
7.19 µM: IC50 (second compound 10 µM)
5.77 µM: IC50 (second compound 3.16 µM)
6.52 µM: IC50 (second compound 0.316 µM)
6.26 µM: IC50 (second compound 0.1 µM)

CCN(c1cc(-c2ccc(CN3CCOCC3)cc2)cc(C(=O)NCc2c(C)cc(C)[nH]c2=O)c1C)C1CCOCC1 + Cc1ccccc1N=Nc1ccc(NC(=O)c2ccnn2C)c(C)c1
inactive: viability, T/C (second compound 0.1 µM, first compound 0.00949 µM) 97.8% | viability, T/C (second compound 0.1 µM, first compound 0.03 µM) 104% | viability, T/C (second compound 0.1 µM, first compound 0.0949 µM) 104% | viability, T/C (second compound 0.1 µM, first compound 0.3 µM) 107% | viability, T/C (second compound 0.1 µM, first compound 0.949 µM) 112% | viability, T/C (second compound 0.1 µM, first compound 3 µM) 118% | viability, T/C (second compound 0.316 µM, first compound 0.00949 µM) 94.3% | viability, T/C (second compound 0.316 µM, first compound 0.03 µM) 106% | viability, T/C (second compound 0.316 µM, first compound 0.0949 µM) 95% | viability, T/C (second compound 0.316 µM, first compound 0.3 µM) 100% | viability, T/C (second compound 0.316 µM, first compound 0.949 µM) 102% | viability, T/C (second compound 0.316 µM, first compound 3 µM) 106% | viability, T/C (second compound 1 µM, first compound 0.00949 µM) 97.7% | viability, T/C (second compound 1 µM, first compound 0.03 µM) 93.2% | viability, T/C (second compound 1 µM, first compound 0.0949 µM) 115% | viability, T/C (second compound 1 µM, first compound 0.3 µM) 92% | viability, T/C (second compound 1 µM, first compound 0.949 µM) 97.3% | viability, T/C (second compound 1 µM, first compound 3 µM) 99.8% | viability, T/C (second compound 3.16 µM, first compound 0.00949 µM) 95.9% | viability, T/C (second compound 3.16 µM, first compound 0.03 µM) 99.9% | viability, T/C (second compound 3.16 µM, first compound 0.0949 µM) 102% | viability, T/C (second compound 3.16 µM, first compound 0.3 µM) 94.2% | viability, T/C (second compound 3.16 µM, first compound 0.949 µM) 87.1% | viability, T/C (second compound 3.16 µM, first compound 3 µM) 101% | viability, T/C (second compound 10 µM, first compound 0.00949 µM) 81.9% | viability, T/C (second compound 10 µM, first compound 0.03 µM) 86.1% | viability, T/C (second compound 10 µM, first compound 0.0949 µM) 96.4% | viability, T/C (second compound 10 µM, first compound 0.3 µM) 86.1% | viability, T/C (second compound 10 µM, first compound 0.949 µM) 82.2% | viability, T/C (second compound 10 µM, first compound 3 µM) 98.5%
> 3 µM: IC50 (second compound 0.1 µM) | IC50 (second compound 0.316 µM) | IC50 (second compound 1 µM) | IC50 (second compound 3.16 µM) | IC50 (second compound 10 µM)

COc1cc(Nc2ncc3c(n2)-c2ccc(Cl)cc2C(c2c(F)cccc2OC)=NC3)ccc1C(=O)O + Cc1ccccc1N=Nc1ccc(NC(=O)c2ccnn2C)c(C)c1
5.02 µM: IC50 (second compound 10 µM)
> 10 µM: IC50 (second compound 0.1 µM)
5.36 µM: IC50 (second compound 0.316 µM)
4.05 µM: IC50 (second compound 3.16 µM)
6.05 µM: IC50 (second compound 1 µM)
inactive: viability, T/C [1] 93.2% | viability, T/C [2] 79.5% | viability, T/C [3] 60.5% | viability, T/C [4] 68.5% | viability, T/C [5] 67.9% | viability, T/C [6] 45.3% | viability, T/C [7] 84.4% | viability, T/C [8] 82.2% | viability, T/C [9] 70.9% | viability, T/C [10] 74% | viability, T/C [11] 57.7% | viability, T/C [12] 39.7% | viability, T/C [13] 86.6% | viability, T/C [14] 82.6% | viability, T/C [15] 65.4% | viability, T/C [16] 65.3% | viability, T/C [17] 54.2% | viability, T/C [18] 46% | viability, T/C [19] 73.9% | viability, T/C [20] 71.8% | viability, T/C [21] 61.3% | viability, T/C [22] 62.5% | viability, T/C [23] 53.8% | viability, T/C [24] 40.8% | viability, T/C [25] 70.9% | viability, T/C [26] 61.5% | viability, T/C [27] 62.5% | viability, T/C [28] 70.4% | viability, T/C [29] 55.7% | viability, T/C [30] 38%

Cn1ncnc1C1c2n[nH]c(=O)c3cc(F)cc(c23)NC1c1ccc(F)cc1 (stereo not given) + Cc1ccccc1N=Nc1ccc(NC(=O)c2ccnn2C)c(C)c1
> 0.1 µM: IC50 (second compound 0.1 µM) | IC50 (second compound 0.316 µM) | IC50 (second compound 1 µM) | IC50 (second compound 3.16 µM) | IC50 (second compound 10 µM)
inactive: viability, T/C (second compound 0.1 µM, first compound 0.000316 µM) 97.2% | viability, T/C (second compound 0.1 µM, first compound 0.001 µM) 88.6% | viability, T/C (second compound 0.1 µM, first compound 0.00316 µM) 103% | viability, T/C (second compound 0.1 µM, first compound 0.01 µM) 95.2% | viability, T/C [1] 104% | viability, T/C [2] 89.7% | viability, T/C (second compound 0.316 µM, first compound 0.000316 µM) 93.8% | viability, T/C (second compound 0.316 µM, first compound 0.001 µM) 98.1% | viability, T/C (second compound 0.316 µM, first compound 0.00316 µM) 92.6% | viability, T/C (second compound 0.316 µM, first compound 0.01 µM) 94.3% | viability, T/C [7] 85.5% | viability, T/C [8] 88.1% | viability, T/C (second compound 1 µM, first compound 0.000316 µM) 93.5% | viability, T/C (second compound 1 µM, first compound 0.001 µM) 89.4% | viability, T/C (second compound 1 µM, first compound 0.00316 µM) 83.3% | viability, T/C (second compound 1 µM, first compound 0.01 µM) 79.6% | viability, T/C [13] 95.9% | viability, T/C [14] 83.1% | viability, T/C (second compound 3.16 µM, first compound 0.000316 µM) 84.9% | viability, T/C (second compound 3.16 µM, first compound 0.001 µM) 79.9% | viability, T/C (second compound 3.16 µM, first compound 0.00316 µM) 88% | viability, T/C (second compound 3.16 µM, first compound 0.01 µM) 78.3% | viability, T/C [19] 79.7% | viability, T/C [20] 75.9% | viability, T/C (second compound 10 µM, first compound 0.000316 µM) 84.2% | viability, T/C (second compound 10 µM, first compound 0.001 µM) 85.2% | viability, T/C (second compound 10 µM, first compound 0.00316 µM) 77.9% | viability, T/C (second compound 10 µM, first compound 0.01 µM) 85.9% | viability, T/C [25] 79.4% | viability, T/C [26] 79.5%

NS(=O)(=O)OCC1CC(n2ccc3c(NC4CCc5ccccc54)ncnc32)CC1O (stereo not given) + Cc1ccccc1N=Nc1ccc(NC(=O)c2ccnn2C)c(C)c1
1.31 µM: IC50 (second compound 10 µM)
inactive: viability, T/C [1] 100% | viability, T/C [2] 94.1% | viability, T/C [3] 97.9% | viability, T/C [4] 90.8% | viability, T/C [5] 64.4% | viability, T/C [6] 45.2% | viability, T/C [7] 102% | viability, T/C [8] 99.8% | viability, T/C [9] 103% | viability, T/C [10] 81.7% | viability, T/C [11] 68.5% | viability, T/C [12] 41% | viability, T/C [13] 96% | viability, T/C [14] 102% | viability, T/C [15] 99% | viability, T/C [16] 74.4% | viability, T/C [17] 51.5% | viability, T/C [18] 38.4% | viability, T/C [19] 93.2% | viability, T/C [20] 99.6% | viability, T/C [21] 67% | viability, T/C [22] 55.6% | viability, T/C [23] 42.1% | viability, T/C [24] 39.6% | viability, T/C [25] 100% | viability, T/C [26] 82.7% | viability, T/C [27] 63.7% | viability, T/C [28] 54.5% | viability, T/C [29] 41.4% | viability, T/C [30] 32%
1.08 µM: IC50 (second compound 3.16 µM)
3.06 µM: IC50 (second compound 1 µM)
7.52 µM: IC50 (second compound 0.1 µM)
6.76 µM: IC50 (second compound 0.316 µM)
